The text below walks through data of the supplement of paper PMC11208160.
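Note: IS621 recombinase and bridge RNA in Escherichia coli cells.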

This data set in a line: recombinant barcode read abundance after kanamycin selection (control-corrected) (log10(CPM+1)); higher = more efficient recombination; sequences stand for … in AGTGCAGAGAAAATCGGCCAGTTTTCTCTGCCTGCAGTCCGCATGCCGT…AGATTTATGCAGCGGACTGCCTTTCTCCCAAAGTGATAAACCGGACAGTATCATGGACCGGTTTTCCCGGTAATCCGTATTTGCAAGGTTGGTTTCACT; site = the 11-nt target. In a few lines:
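IS621 bridge RNA target-binding loops were paired with targets in a pooled library tested in E. coli. After co-electroporation with a donor plasmid, cells were plated in two replicates on chloramphenicol/ampicillin LB agar (control) and on chloramphenicol/ampicillin/kanamycin carrying 0.1 mM IPTG. Barcodes at recombinant junctions were counted as counts per million, averaged and control-corrected to give recombination efficiency. Values are log10(CPM+1).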
For the sequence “GCGACTCCTTGGGTTCTAACCTGTTGCTT (site GCGACTCCTAA)”, the “recombinant barcode read abundance (log10)” value is 0.0299.
“GCGACTCCTTGGGTTCTAACCTGTTGCTT (site GCGACTCCTAG)”: the “recombinant barcode read abundance (log10)” value is 0.0916.
For the sequence “GCGCACACTTGGGTTCTAACCTGTTGCCT (site ACGCACACTAG)”, the “recombinant barcode read abundance (log10)” value is 0.851.
In the case of “GCGCACACTTGGGTTCTAACCTGTTGCCT (site CCGCACACTAG)” it was 0.206; in that of “GCGCACACTTGGGTTCTAACCTGTTGCCT (site GCGCACACTAG)”, 1.05; in that of “GCGCACACTTGGGTTCTAACCTGTTGCCT (site TCGCACACTAG)”, 0.319.
On to “GCGCATCCTTGGGTTCTAACCTGTTGCCT (site GCGAATCCTAG)”, for which the “recombinant barcode read abundance (log10)” value is 0.719.
Take “GCGCATCCTTGGGTTCTAACCTGTTGCCT (site GCGCATCCTAG)”: the “recombinant barcode read abundance (log10)” value amounted to 0.753.
Consider “GCGCATCCTTGGGTTCTAACCTGTTGCCT (site GCGGATCCTAG)”, for which the “recombinant barcode read abundance (log10)” value is 0.306.
On to “GCGCATCCTTGGGTTCTAACCTGTTGCCT (site GCGTATCCTAG)”, for which the “recombinant barcode read abundance (log10)” value came out at 0.0569.
Regarding “GCGCGTTCTTGGGTTCTAACCTGTTGCCT (site GCGAGCTCTAG)”, the “recombinant barcode read abundance (log10)” value is 0.054.
On to “GCGCGTTCTTGGGTTCTAACCTGTTGCCT (site GCGCGTTCTAG)”, for which the “recombinant barcode read abundance (log10)” value stood at 1.2.
In the case of “GCGGCTTCTTGGGTTCTAACCTGTTGCCT (site GAGGCTTCTAG)” it was 0.0638; in that of “GCGGCTTCTTGGGTTCTAACCTGTTGCCT (site GCGGCTTCTAG)”, 0.868.
Turning to “GCGGCTTCTTGGGTTCTAACCTGTTGCCT (site GGGGCTTCTAG)”, the “recombinant barcode read abundance (log10)” value came out at 0.0151.
As to “GCGGCTTCTTGGGTTCTAACCTGTTGCCT (site GTGGCTTCTAG)”, the “recombinant barcode read abundance (log10)” value was 0.121.
With “GCGTCGGCTTGGGTTCTAACCTGTTGCCT (site GCATCGGCTAG)”, the “recombinant barcode read abundance (log10)” value was 0.474.
Regarding “GCGTCGGCTTGGGTTCTAACCTGTTGCCT (site GCCTCGGCTAG)”, the “recombinant barcode read abundance (log10)” value came to 0.177.
For “GCGTCGGCTTGGGTTCTAACCTGTTGCCT (site GCGTCGGCTAG)”, the “recombinant barcode read abundance (log10)” value was 0.183.
As for “GCGTCGGCTTGGGTTCTAACCTGTTGCCT (site GCTTCGGCTAG)”, the “recombinant barcode read abundance (log10)” value was 0.405.
In the case of “GCGTGCCCTTGGGTTCTAACCTGTTGCCT (site CCGTGCCCTAG)”, the “recombinant barcode read abundance (log10)” value amounted to 0.552.
With “GCGTGCCCTTGGGTTCTAACCTGTTGCCT (site GCGTGCCCTAG)”, the “recombinant barcode read abundance (log10)” value is 0.82.
As for “GCTAACCCTTGGGTTCTAACCTGTTGCCT (site ACTAAACCTAG)”, the “recombinant barcode read abundance (log10)” value was 0.5.
In the case of “GCTAACCCTTGGGTTCTAACCTGTTGCCT (site GCTAACCCTAG)” it was 1.18.
For the sequence “GCTAGTTCTTGGGTTCTAACCTGTTGCTT (site ACTCGTTCTAA)”, the “recombinant barcode read abundance (log10)” value came to 0.0742.
In the case of “GCTAGTTCTTGGGTTCTAACCTGTTGCTT (site GCTAGTTCTAA)”, the “recombinant barcode read abundance (log10)” value was 0.351.
Turning to “GCTCATACTTGGGTTCTAACCTGTTGCCT (site CACGCGCCTCC)”, the “recombinant barcode read abundance (log10)” value was 0.0433.
“GCTCATACTTGGGTTCTAACCTGTTGCCT (site GCTCATACTAG)”: the “recombinant barcode read abundance (log10)” value worked out at 0.714.
“GCTCTAGCTTGGGTTCTAACCTGTTGCTA (site ACTCTAGCTGA)”: the “recombinant barcode read abundance (log10)” value was determined as 0.143.
In the case of “GCTCTAGCTTGGGTTCTAACCTGTTGCTA (site GCTCTAGCTTA)” it was 0.515; in that of “GCTGCGACTTGGGTTCTAACCTGTTGCCT (site GCAGCGACTAG)”, 0.17.
On to “GCTGCGACTTGGGTTCTAACCTGTTGCCT (site GCCGCGACTAG)”, for which the “recombinant barcode read abundance (log10)” value was 0.101.
Turning to “GCTGCGACTTGGGTTCTAACCTGTTGCCT (site GCGGCGACTAG)”, the “recombinant barcode read abundance (log10)” value was determined as 0.0147.
Take “GCTGCGACTTGGGTTCTAACCTGTTGCCT (site GCTGCGACTAG)”: the “recombinant barcode read abundance (log10)” value amounted to 0.972.
As for “GCTGCGCCTTGGGTTCTAACCTGTTGCCT (site GCCGGGCCTAG)”, the “recombinant barcode read abundance (log10)” value came out at 0.225.
Turning to “GCTGCGCCTTGGGTTCTAACCTGTTGCCT (site GCTGCGCCTAG)”, the “recombinant barcode read abundance (log10)” value was found to be 1.05.
Regarding “GCTGGGTCTTGGGTTCTAACCTGTTGCTT (site GCAGGGTCTAA)”, the “recombinant barcode read abundance (log10)” value is 0.466.
Consider “GCTGGGTCTTGGGTTCTAACCTGTTGCTT (site GCCGGGTCTAA)”, for which the “recombinant barcode read abundance (log10)” value worked out at 0.284.
As to “GCTGGGTCTTGGGTTCTAACCTGTTGCTT (site GCGGGGTCTAA)”, the “recombinant barcode read abundance (log10)” value came out at 0.0202.
“GCTGGGTCTTGGGTTCTAACCTGTTGCTT (site GCTGGGTCTAA)”: the “recombinant barcode read abundance (log10)” value was 1.65.
Turning to “GCTTGGACTTGGGTTCTAACCTGTTGCAG (site CCTTGGACTTT)”, the “recombinant barcode read abundance (log10)” value was determined as 0.175.
As to “GCTTGGACTTGGGTTCTAACCTGTTGCAG (site GCTTGGACTCT)”, the “recombinant barcode read abundance (log10)” value is 1.72.
In the case of “GGAAGGCCTTGGGTTCTAACCTGTTGCTT (site GGAAGGCCTAA)” it was 0.221; in that of “GGAAGGCCTTGGGTTCTAACCTGTTGCTT (site TTGGTCACTTG)”, 0.0545; in that of “GGACACTCTTGGGTTCTAACCTGTTGCTA (site GGACACTCTAG)”, 2.32.
For “GGACACTCTTGGGTTCTAACCTGTTGCTA (site GGACACTCTTA)”, the “recombinant barcode read abundance (log10)” value is 2.15.
The result for “GGACATTCTTGGGTTCTAACCTGTTGCTT (site GGACATTCTAA)” reads 0.319; that for “GGACATTCTTGGGTTCTAACCTGTTGCTT (site TGACATTCTAA)”, 0.0458; that for “GGACCCTCTTGGGTTCTAACCTGTTGCAC (site GGACCCTCTGT)”, 1.76.
On to “GGACCCTCTTGGGTTCTAACCTGTTGCAC (site TACAAGACTAC)”, for which the “recombinant barcode read abundance (log10)” value came out at 0.0797.
The result for “GGACCTCCTTGGGTTCTAACCTGTTGCTT (site GGACCTCCTAA)” reads 1.33.
In the case of “GGACCTCCTTGGGTTCTAACCTGTTGCTT (site GGACCTCCTAC)” it was 0.221; in that of “GGACCTCCTTGGGTTCTAACCTGTTGCTT (site GGACCTCCTAG)”, 1.27; in that of “GGACCTCCTTGGGTTCTAACCTGTTGCTT (site GGACCTCCTAT)”, 1.32.
The result for “GGACGCACTTGGGTTCTAACCTGTTGCGG (site CCTAAGCCTAT)” reads 0.604; that for “GGACGCACTTGGGTTCTAACCTGTTGCGG (site GGACGCACTCC)”, 2.4.
Consider “GGACGCCCTTGGGTTCTAACCTGTTGCCT (site GGACGACCTAG)”, for which the “recombinant barcode read abundance (log10)” value worked out at 0.427.
As for “GGACGCCCTTGGGTTCTAACCTGTTGCCT (site GGACGCCCTAG)”, the “recombinant barcode read abundance (log10)” value worked out at 1.35.
The result for “GGACGCCCTTGGGTTCTAACCTGTTGCCT (site GGACGGCCTAG)” reads 0.186; that for “GGACGCCCTTGGGTTCTAACCTGTTGCCT (site GGACGTCCTAG)”, 0.426; that for “GGACGTCCTTGGGTTCTAACCTGTTGCCT (site GGACGACCTAG)”, 0.0935.
As for “GGACGTCCTTGGGTTCTAACCTGTTGCCT (site GGACGCCCTAG)”, the “recombinant barcode read abundance (log10)” value was 0.369.
The result for “GGACGTCCTTGGGTTCTAACCTGTTGCCT (site GGACGGCCTAG)” reads 0.0468.
“GGACGTCCTTGGGTTCTAACCTGTTGCCT (site GGACGTCCTAG)”: the “recombinant barcode read abundance (log10)” value was 0.734.
In the case of “GGAGAGTCTTGGGTTCTAACCTGTTGCCT (site GAAGAGTCTAG)”, the “recombinant barcode read abundance (log10)” value worked out at 2.17.
For “GGAGAGTCTTGGGTTCTAACCTGTTGCCT (site GCAGAGTCTAG)”, the “recombinant barcode read abundance (log10)” value is 0.995.
In the case of “GGAGAGTCTTGGGTTCTAACCTGTTGCCT (site GGAGAGTCTAG)”, the “recombinant barcode read abundance (log10)” value turned out to be 2.45.
Take “GGAGAGTCTTGGGTTCTAACCTGTTGCCT (site GTAGAGTCTAG)”: the “recombinant barcode read abundance (log10)” value was determined as 1.09.
As for “GGAGGAACTTGGGTTCTAACCTGTTGCCT (site GGAGGAACTAG)”, the “recombinant barcode read abundance (log10)” value came to 2.39.
Regarding “GGAGGAACTTGGGTTCTAACCTGTTGCCT (site GGAGGTACTAG)”, the “recombinant barcode read abundance (log10)” value was 0.1.
“GGAGGACCTTGGGTTCTAACCTGTTGCTT (site GGAAGACCTTA)”: the “recombinant barcode read abundance (log10)” value amounted to 0.19.
“GGAGGACCTTGGGTTCTAACCTGTTGCTT (site GGAGGACCTAA)”: the “recombinant barcode read abundance (log10)” value was 2.4.
“GGAGGGACTTGGGTTCTAACCTGTTGCCT (site GAAGGGACTAG)”: the “recombinant barcode read abundance (log10)” value is 1.38.
The result for “GGAGGGACTTGGGTTCTAACCTGTTGCCT (site GCAGGGACTAG)” reads 0.658.
In the case of “GGAGGGACTTGGGTTCTAACCTGTTGCCT (site GGAGGGACTAG)”, the “recombinant barcode read abundance (log10)” value was found to be 2.69.
On to “GGAGGGACTTGGGTTCTAACCTGTTGCCT (site GTAGGGACTAG)”, for which the “recombinant barcode read abundance (log10)” value amounted to 1.7.
The result for “GGAGGTACTTGGGTTCTAACCTGTTGCCT (site GGAGGAACTAG)” reads 0.0658.
